Where two headings read alike, the source gives them in different places.
How the values were obtained:
naïve human CD8 T cells = assay: Human CD8 T cells IFN-γ assay; format: cell-based; conditions: read-out: HuCD8 INFG Normalized EC50;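 note: Naïve human CD8 T cells stimulated with plate-bound anti-CD3 and soluble anti-CD28, IFN-γ in supernatant quantified by AlphaLISA and converted to pg/mL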
Human venous whole blood = assay: Human whole blood IFN-γ assay; format: cell-based;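 note: blood from healthy donors exposed to compound for 1 h before stimulation with anti-CD3 and anti-CD28 at 1 µg/mL each, IFN-γ quantified in supernatant by AlphaLISA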
human DGKα = target: T1, human DGKα (Homo sapiens, UniProt P23743); assay: DGKα LIPGLO assay (extruded liposome substrate), in vitro DGK inhibition; format: biochemical; conditions: read-out: DGKa LIPGLO IC50
T1 construct: TVMV protease cleavage site (C); Hexa-His (C); made in house; host or cells: Sf9 insect cells (baculovirus, Bac-to-Bac)
T1 sequence (P23743 with tags, fused parts or gaps): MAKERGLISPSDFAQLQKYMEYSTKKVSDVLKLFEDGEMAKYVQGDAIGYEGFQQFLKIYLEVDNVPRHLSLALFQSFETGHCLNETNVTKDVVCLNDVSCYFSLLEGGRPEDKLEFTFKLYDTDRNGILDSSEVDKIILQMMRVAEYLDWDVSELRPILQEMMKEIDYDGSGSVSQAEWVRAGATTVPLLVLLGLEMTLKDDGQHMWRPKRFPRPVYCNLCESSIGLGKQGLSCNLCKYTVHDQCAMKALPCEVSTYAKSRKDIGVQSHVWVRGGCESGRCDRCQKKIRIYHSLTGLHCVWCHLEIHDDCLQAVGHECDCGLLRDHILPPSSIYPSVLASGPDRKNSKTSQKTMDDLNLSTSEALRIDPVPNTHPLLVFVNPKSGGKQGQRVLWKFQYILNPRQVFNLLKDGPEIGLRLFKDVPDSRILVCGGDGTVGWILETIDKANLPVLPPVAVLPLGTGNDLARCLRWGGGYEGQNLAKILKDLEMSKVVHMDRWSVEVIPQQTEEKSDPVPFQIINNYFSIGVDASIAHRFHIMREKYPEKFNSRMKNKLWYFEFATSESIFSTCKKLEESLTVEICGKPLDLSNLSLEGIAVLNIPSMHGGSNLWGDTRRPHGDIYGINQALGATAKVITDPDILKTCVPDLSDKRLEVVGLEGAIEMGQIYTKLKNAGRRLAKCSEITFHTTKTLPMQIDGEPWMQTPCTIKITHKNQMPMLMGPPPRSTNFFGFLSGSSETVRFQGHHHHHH

human DGKζ = target: T2, human DGKζ (Homo sapiens, UniProt Q13574); assay: DGKζ LIPGLO assay (extruded liposome substrate), in vitro DGK inhibition; format: biochemical; conditions: read-out: DGKz LIPGLO IC50
T2 construct: TVMV protease cleavage site (C); Hexa-His (C); made in house; host or cells: Sf9 insect cells (baculovirus, Bac-to-Bac)
T2 sequence (Q13574 with tags, fused parts or gaps isoform Q13574-4): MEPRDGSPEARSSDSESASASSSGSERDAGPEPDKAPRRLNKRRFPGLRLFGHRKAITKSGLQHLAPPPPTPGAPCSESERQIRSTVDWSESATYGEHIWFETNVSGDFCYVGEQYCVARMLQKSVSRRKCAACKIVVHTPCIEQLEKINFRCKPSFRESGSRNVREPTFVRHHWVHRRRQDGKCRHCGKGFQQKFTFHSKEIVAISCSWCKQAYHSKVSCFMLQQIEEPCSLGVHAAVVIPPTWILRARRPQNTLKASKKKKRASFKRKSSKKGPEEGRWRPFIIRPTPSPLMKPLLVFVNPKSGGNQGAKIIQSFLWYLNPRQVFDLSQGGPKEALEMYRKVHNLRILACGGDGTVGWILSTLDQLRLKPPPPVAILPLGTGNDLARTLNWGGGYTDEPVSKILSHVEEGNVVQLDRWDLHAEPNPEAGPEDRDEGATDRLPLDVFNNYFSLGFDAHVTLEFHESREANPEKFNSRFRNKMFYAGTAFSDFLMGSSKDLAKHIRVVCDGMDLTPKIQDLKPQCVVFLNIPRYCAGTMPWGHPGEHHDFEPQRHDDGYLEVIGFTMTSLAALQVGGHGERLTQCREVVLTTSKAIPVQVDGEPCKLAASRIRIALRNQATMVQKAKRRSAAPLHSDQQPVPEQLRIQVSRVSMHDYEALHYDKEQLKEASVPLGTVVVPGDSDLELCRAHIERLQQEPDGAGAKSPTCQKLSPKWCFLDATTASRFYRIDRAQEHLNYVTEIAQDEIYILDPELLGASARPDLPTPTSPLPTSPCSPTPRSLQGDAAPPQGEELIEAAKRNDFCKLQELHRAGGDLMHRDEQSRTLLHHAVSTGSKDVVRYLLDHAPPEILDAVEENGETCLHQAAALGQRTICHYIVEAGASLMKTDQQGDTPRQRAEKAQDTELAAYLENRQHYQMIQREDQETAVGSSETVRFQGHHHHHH

[1] = Homo sapiens, T-cell, 20 h, normalized to 3 μM reference compound with anti-CD3 plus anti-CD28 as 100% activation
[2] = Homo sapiens, human whole blood, normalized to 3 μM reference compound with anti-CD3 plus anti-CD28 as 100% activation, read-out: INFg Whole Blood Normalized Agonist EC50
[3] = human whole blood, normalized to 3 μM reference compound with anti-CD3 plus anti-CD28 as 100% activation, read-out: INFg Whole Blood Normalized Agonist EC50
[4] = Homo sapiens, 24 h, human whole blood, normalized to 3 μM reference compound with anti-CD3 plus anti-CD28 as 100% activation, read-out: INFg Whole Blood Normalized Agonist EC50
[5] = Homo sapiens, T-cell, 20 h, naïve human CD8 T cells, anti-CD3 plus anti-CD28, 3 μM reference compound = 100% activation
[6] = normalized to 3 μM reference compound with anti-CD3 plus anti-CD28 as 100% activation

Row | SMILES | IC50 (human DGKα; liposome (LIPGLO) assay) [nM] | IC50 (human DGKζ; liposome (LIPGLO) assay) [nM] | EC50 (naïve human CD8 T cells; [1]) [nM] | EC50 (Human venous whole blood; [3]) [nM] | EC50 (naïve human CD8 T cells; [6]) [nM] | also measured
1 | CCC(c1ccc(F)cc1F)N1C[C@H](C)N(c2cc(=O)n(C)c3ccc(C#N)nc23)C[C@H]1C (mixture of isomers) [Example 337, 8-((2S,5R)-4-(1-(2,4-difluorophenyl)propyl)-2,5-dimethylpiperazin-1-yl)-5-methyl-6-oxo-5,6-dihydro-1,5-naphthyridine-2-carbonitrile] |  |  | 48 |  |  | EC50 (Human venous whole blood; [2]): 440 nM
2 | C[C@@H]1CN(c2cc(=O)n(C)c3ccc(C#N)nc23)[C@@H](C)CN1C(c1ccccc1)c1ccc(F)cc1 (mixture of isomers) [Example 182, 8-[(2S,5R)-4-[(4-fluorophenyl)(phenyl)methyl]-2,5-dimethylpiperazin-1-yl]-5-methyl-6-oxo-5,6-dihydro-1,5-naphthyridine-2-carbonitrile] | 870 | 1600 | 30 |  |  | EC50 (Human venous whole blood; [2]): 680 nM
3 | Cc1ccc(C(c2ccc(Cl)cc2)N2CCN(c3c(C#N)c(=O)n(C)c4ccc(C#N)nc34)C[C@H]2C)cc1 (mixture of isomers) [Example 907] |  |  |  |  |  | EC50 (naïve human CD8 T cells; [5]): 70 nM; IC50 (human DGKα; DGKα liposome (LIPGLO) assay): 4400 nM; EC50 (Human venous whole blood; Homo sapiens, 24 h, human whole blood, anti-CD3 plus anti-CD28, 24 hours, 3 μM reference compound = 100% activation, read-out: INFg Whole Blood Normalized Agonist EC50): 730 nM; IC50 (human DGKζ; DGKζ liposome (LIPGLO) assay): 1500 nM
4 | Cn1c(=O)cc(N2CCN(C(c3ccc(F)cc3)c3ccc(F)cc3)C(C(=O)NC3CC3)C2)c2nc(C#N)ccc21 (single isomer, unassigned) [Example 47, 1-(bis(4-fluorophenyl)methyl)-4-(6-cyano-1-methyl-2-oxo-1,2-dihydro-1,5-naphthyridin-4-yl)-N-cyclopropylpiperazine-2-carboxamide] | 260000 | 5200 |  |  | 10000 | EC50 (Human venous whole blood; [4]): 5000 nM
5 | COc1cc(F)ccc1C(N1C[C@H](C)N(c2cc(=O)n(C)c3ccc(C#N)nc23)C[C@H]1C)C(C)(C)C (single isomer, unassigned) [Example 185] | 4400 | 210 | 10000 | 2000 |  | 
6 | COc1cc(F)ccc1C(N1C[C@H](C)N(c2cc(=O)n(C)c3ccc(C#N)nc23)C[C@H]1C)C(C)(C)C (single isomer, unassigned) [Example 186] | 3300 | 14000 |  | 20000 | 10000 | 
7 | C[C@@H]1CN(c2cc(=O)n(C)c3ccc(C#N)nc23)[C@@H](C)CN1C(c1ccc(F)cc1)c1ncccc1F (single isomer, unassigned) [Example 187] | 180 | 1300 |  | 1400 | 110 | 
8 | C[C@@H]1CN(c2cc(=O)n(C)c3ccc(C#N)nc23)[C@@H](C)CN1C(c1ccc(F)cc1)c1ncccc1F (single isomer, unassigned) [Example 188] | 690 | 3800 |  | 660 | 14 | 
9 | C[C@@H]1CN(c2cc(=O)n(C)c3ccc(C#N)nc23)[C@@H](C)CN1C(c1ccc(Cl)cc1)c1ncccc1F (single isomer, unassigned) [Example 189] | 200 | 550 | 100 |  |  | EC50 (Human venous whole blood; [4]): 1200 nM
10 | C[C@@H]1CN(c2cc(=O)n(C)c3ccc(C#N)nc23)[C@@H](C)CN1C(c1ccc(Cl)cc1)c1ncccc1F (single isomer, unassigned) [Example 190] | 220 | 1100 |  | 700 | 170 | 
11 | C[C@@H]1CN(c2cc(=O)n(C)c3ccc(C#N)nc23)[C@@H](C)CN1C(c1ccc(Cl)cc1)c1ccc(F)cn1 (single isomer, unassigned) [Example 191] | 200 | 590 | 31 |  |  | EC50 (Human venous whole blood; [4]): 430 nM
12 | C[C@@H]1CN(c2cc(=O)n(C)c3ccc(C#N)nc23)[C@@H](C)CN1C(c1ccc(Cl)cc1)c1ccc(F)cn1 (single isomer, unassigned) [Example 192] | 120 | 1500 |  | 600 | 56 | 
13 | CCC(c1ccc(F)cc1F)N1C[C@H](C)N(c2cc(=O)n(C)c3ccc(C#N)nc23)C[C@H]1C (single isomer, unassigned) [Example 338] |  |  | 20 |  |  | EC50 (Human venous whole blood; [2]): 130 nM
14 | C[C@@H]1CN(c2c(C#N)c(=O)n(C)c3ccc(C#N)nc23)CCN1C(c1ccccc1)c1ccc(Cl)cc1 (single isomer, unassigned) [Example 886] |  |  |  |  |  | EC50 (naïve human CD8 T cells; [5]): 9.6 nM; EC50 (Human venous whole blood; read-out: INFg Whole Blood Normalized Agonist EC50, human whole blood, anti-CD3 plus anti-CD28, 24 hours, 3 μM reference compound = 100% activation): 600 nM
15 | C[C@@H]1CN(c2cc(=O)n(C)c3ccc(C#N)nc23)[C@@H](C)CN1C(c1ccc(F)cc1)c1ccccc1F (stereo partly drawn) [Example 284, 8-[(2S,5R)-4-[(2-fluorophenyl)(4-fluorophenyl)methyl]-2,5-dimethylpiperazin-1-yl]-5-methyl-6-oxo-5,6-dihydro-1,5-naphthyridine-2-carbonitrile] |  |  | 36 |  |  | EC50 (Human venous whole blood; Homo sapiens, 24 h, read-out: INFg Whole Blood Normalized Agonist EC50, human whole blood, normalized to 3 μM reference compound with anti-CD3 plus anti-CD28 as 100% activation): 780 nM

More lines, main results first:

Row | IC50 (human DGKα; liposome (LIPGLO) assay) [nM] | IC50 (human DGKζ; liposome (LIPGLO) assay) [nM] | SMILES | EC50 (naïve human CD8 T cells; [1]) [nM] | EC50 (Human venous whole blood; [3]) [nM] | EC50 (naïve human CD8 T cells; [6]) [nM] | also measured
16 | 140 | 1800 | C[C@@H]1CN(c2cc(=O)n(C)c3ccc(C#N)nc23)[C@@H](C)CN1C(c1ccc(OC(F)(F)F)cc1)c1ccc(F)cn1 (mixture of isomers) [Example 462, 8-((2S,5R)-4-((5-fluoropyridin-2-yl)(4-(trifluoromethoxy)phenyl)methyl)-2,5-dimethylpiperazin-1-yl)-5-methyl-6-oxo-5,6-dihydro-1,5-naphthyridine-2-carbonitrile] | 20 | 450 |  | 
17 | 1300 | 790 | C[C@@H]1CN(c2cc(=O)n(C)c3ccc(C#N)nc23)[C@@H](C)CN1C(c1ccc(F)cc1)c1cccc(F)c1 (mixture of isomers) [Example 248, 8-[(2S,5R)-4-[(3-fluorophenyl)(4-fluorophenyl)methyl]-2,5-dimethylpiperazin-1-yl]-5-methyl-6-oxo-5,6-dihydro-1,5-naphthyridine-2-carbonitrile] | 53 |  |  | EC50 (Human venous whole blood; [4]): 710 nM
18 | 200 | 680 | C[C@@H]1CN(c2cc(=O)n(C)c3ccc(C#N)nc23)[C@@H](C)CN1C(c1ccc(F)cc1)c1ccc(F)cn1 (single isomer, unassigned) [Example 194] | 40 |  |  | EC50 (Human venous whole blood; [4]): 980 nM
19 | 1100 | 1100 | C[C@@H]1CN(c2cc(=O)n(C)c3ccc(C#N)nc23)[C@@H](C)CN1C(c1ccc(Cl)cc1)c1cccc(F)n1 (single isomer, unassigned) [Example 195] |  |  | 9.9 | EC50 (Human venous whole blood; [4]): 1800 nM
20 | 1300 | 3000 | C[C@@H]1CN(c2cc(=O)n(C)c3ccc(C#N)nc23)[C@@H](C)CN1C(c1ccc(Cl)cc1)c1cccc(F)n1 (single isomer, unassigned) [Example 196] |  | 1400 | 47 | 
21 | 240 | 870 | C[C@@H]1CN(c2cc(=O)n(C)c3ccc(C#N)nc23)[C@@H](C)CN1C(c1ccc(F)cc1)c1ccccn1 (single isomer, unassigned) [Example 198] |  | 590 | 21 | 
22 | 100 | 100 | Cc1ccc(C(c2ccc(Cl)cn2)N2C[C@H](C)N(c3cc(=O)n(C)c4ccc(C#N)nc34)C[C@H]2C)cc1 (single isomer, unassigned) [Example 199] | 61 | 250 |  | 
23 | 61 | 200 | Cc1ccc(C(c2ccc(Cl)cn2)N2C[C@H](C)N(c3cc(=O)n(C)c4ccc(C#N)nc34)C[C@H]2C)cc1 (single isomer, unassigned) [Example 200] |  | 540 | 40 | 
24 | 450 | 790 | C[C@@H]1CN(c2cc(=O)n(C)c3ccc(C#N)nc23)[C@@H](C)CN1C(c1ccc(Cl)cc1)c1ccc(Cl)cn1 (single isomer, unassigned) [Example 201] |  |  | 31 | EC50 (Human venous whole blood; [4]): 500 nM
25 | 110 | 490 | C[C@@H]1CN(c2cc(=O)n(C)c3ccc(C#N)nc23)[C@@H](C)CN1C(c1ccc(Cl)cc1)c1ccc(Cl)cn1 (single isomer, unassigned) [Example 202] |  | 380 | 8.3 | 
26 | 190 | 29 | Cc1cccc(C(c2ccc(F)cc2)N2C[C@H](C)N(c3cc(=O)n(C)c4ccc(C#N)nc34)C[C@H]2C)n1 (single isomer, unassigned) [Example 203] |  | 290 | 32 | 
27 | 1300 | 220 | Cc1cccc(C(c2ccc(F)cc2)N2C[C@H](C)N(c3cc(=O)n(C)c4ccc(C#N)nc34)C[C@H]2C)n1 (single isomer, unassigned) [Example 204] |  | 620 | 12 | 
28 |  | 570 | CCc1cc(F)ccc1C(c1ccc(Cl)cc1)N1C[C@H](C)N(c2cc(=O)n(C)c3ccc(C#N)nc23)C[C@H]1C (single isomer, unassigned) [Example 225] | 61 | 7600 |  | 
